For 9 compounds, IC50 results are on record in patent US20240148821A1, “PHARMACEUTICAL USE OF CYCLIC PEPTIDE COMPOUND” (CHUGAI SEIYAKU KABUSHIKI KAISHA, priority 2021, published 2024).

Numbered stars: 1 amine (or outer) side, 2 acyl side, 3 side chain; on linkers, the order of the positions; unused ones are H or OH. Bridge positions count the residues as written; N and C are the ends. Square brackets hold non-standard residues; d marks the D form. Peptide text beside a SMILES is read from it. * marks the point of attachment. hPhe(3-Cl-4-CF3) = N[C@@H](CCc1ccc(C(F)(F)F)c(Cl)c1)C(=O)O; NMePhe(2-CF3) = CN[C@@H](Cc1ccccc1C(F)(F)F)C(=O)O; hPhe(4-CF3) = N[C@@H](CCc1ccc(C(F)(F)F)cc1)C(=O)O; NMePhe(3-CN) = CN[C@@H](Cc1cccc(C#N)c1)C(=O)O; NEtPhe(4-Me) = CCN[C@@H](Cc1ccc(C)cc1)C(=O)O; NMePhe(4-Cl) = CN[C@@H](Cc1ccc(Cl)cc1)C(=O)O; NMePhe(4-Me) = CN[C@@H](Cc1ccc(C)cc1)C(=O)O; NMedβ3hAla = C[C@H](CC(=O)[*:2])N(C)[*:1]; Phe(3-Br) = N[C@@H](Cc1cccc(Br)c1)C(=O)O; NMeGly(cPent) = CN[C@H](C(=O)O)C1CCCC1; Phe(3-I) = N[C@@H](Cc1cccc(I)c1)C(=O)O; Phe(4-Me) = Cc1ccc(C[C@H](N)C(=O)O)cc1; NMeCha = CN[C@@H](CC1CCCCC1)C(=O)O; Hyp = O=C(O)[C@@H]1C[C@@H](O)CN1; NEtLeu = CCN[C@@H](CC(C)C)C(=O)O; NMeChg = CN[C@H](C(=O)O)C1CCCCC1; NMeI = CC[C@H](C)[C@H](NC)C(=O)O; NMeD = CN[C@@H](CC(=O)O)C(=O)O; NMeL = CN[C@@H](CC(C)C)C(=O)O; NMeV = CN[C@H](C(=O)O)C(C)C; d(β3hA) = C[C@@H](N)CC(=O)O; NMeS = CN[C@@H](CO)C(=O)O; NMeA = CN[C@@H](C)C(=O)O; NMeAib = CNC(C)(C)C(=O)O; Nle = CCCC[C@H](N)C(=O)O; Piperidide = C1CCN(*)CC1; Ac5c = NC1(C(=O)O)CCCC1; Aze = O=C(O)[C@@H]1CCN1; Ac4c = NC1(C(=O)O)CCC1; CH2CMe2OH = CC(C)(O)C*; Aib = CC(C)(N)C(=O)O; Isopentyl = CC(C)CC*; NPrGly = CCCNCC(=O)O; NEtG = CCNCC(=O)O; Sar = CNCC(=O)O

The assay deals with Human pancreatic cancer cell line AsPC-1 (G12D mutation Kras). Kind of assay: AsPC-1 cell growth inhibition (AsPC-1 CGI). The note with it: read-out: AsPC-1 cell growth inhibition, 50% growth inhibitory concentration (IC50 value); 96 hours, CellTiter-Glo, values classified in ranges. In kind it is cell-based. In general terms: Cellular ATP, detected with luciferase, serves as a proxy for viable cell number.
Protocol: Test compounds were serially dilated with dimethyl sulfoxide, and 200 nL was then dispensed to a U-bottom 96-well plate using Labcyte Echo. […] The cell suspension was dispensed to a. plate containing a test compound at 100 μL per well and incubated at 37° C. in a 5% carbon dioxide gas incubator. 96 hours later, 80 μL of CellTiter-Glo (Promega) was added to each well and fluorescence was measured.
Regarding `CC[C@H](C)[C@@H]1NC(=O)[C@H](CC(C)C)N(C)C(=O)C[C@@H](C(=O)N2CCCCC2)N(C)C(=O)[C@H](CC(C)C)N(C)C(=O)C(C)(C)NC(=O)[C@H](COCC(C)(C)O)N(C)C(=O)[C@H](CCc2ccc(C(F)(F)F)cc2)NC(=O)CN(C)C(=O)[C@H](COCCC(C)C)N(C)C(=O)CN(C)C(=O)CN(CC)C1=O` [Compound 1528] ([NMeL]I[NEtG][Sar][NMeS](Isopentyl)[Sar][hPhe(4-CF3)][NMeS](CH2CMe2OH)[Aib][NMeL][NMeD]-Piperidide; lactam N-11), the IC50 is greater than 500 nM.
On to `CCCC[C@@H]1NC(=O)[C@H](Cc2cccc(Br)c2)NC(=O)CN(C)C(=O)[C@H](Cc2ccc(Cl)cc2)N(C)C(=O)[C@@H]2CCN2C(=O)[C@H](C)N(C)C(=O)[C@H]([C@@H](C)CC)NC(=O)[C@H](CC(C)C)N(C)C(=O)C[C@@H](C(=O)N2CCCCC2)N(C)C(=O)[C@H](CC(C)C)NC(=O)C(C)(C)N(C)C1=O` [Compound 1415] ([NMeL]I[NMeA][Aze][NMePhe(4-Cl)][Sar][Phe(3-Br)][Nle][NMeAib]L[NMeD]-Piperidide; lactam N-11), for which the IC50 is greater than 500 nM.
`CC[C@H](C)[C@@H]1NC(=O)[C@H](CC(C)C)N(C)C(=O)C[C@@H](C)NC(=O)[C@H](C(C)C)N(C)C(=O)C2(CCCC2)NC(=O)[C@@H]2CCCN2C(=O)[C@H](CCc2ccc(C(F)(F)F)c(Cl)c2)NC(=O)CN(C)C(=O)[C@H](Cc2cccc(C#N)c2)N(C)C(=O)CN(C)C(=O)CN(C)C1=O` [Compound 975] (cyclo([Ac5c][NMeV][d(β3hA)][NMeL]I[Sar][Sar][NMePhe(3-CN)][Sar][hPhe(3-Cl-4-CF3)]P)): the IC50 is greater than 500 nM.
As to `CCCN1CC(=O)N(C)CC(=O)N(C)[C@@H](CC2CCCCC2)C(=O)N(C)CC(=O)N[C@@H](CCc2ccc(C(F)(F)F)c(Cl)c2)C(=O)N2CCC[C@H]2C(=O)NC2(CCCC2)C(=O)N(C)[C@@H](C(C)C)C(=O)N[C@H](C)CC(=O)N(C)[C@@H](CC(C)C)C(=O)N[C@@H]([C@@H](C)CC)C1=O` [Compound 116] (cyclo([Ac5c][NMeV][d(β3hA)][NMeL]I[NPrGly][Sar][NMeCha][Sar][hPhe(3-Cl-4-CF3)]P)), the IC50 is greater than 500 nM.
The figure for `CC[C@H](C)[C@@H]1NC(=O)[C@H](CC(C)C)N(C)C(=O)C[C@@H](C(=O)N2CCCCC2)N(C)C(=O)[C@H](CC(C)C)NC(=O)C(C)(C)N(C)C(=O)[C@H](Cc2ccc(C)cc2)NC(=O)[C@H](Cc2cccc(I)c2)NC(=O)CN(C)C(=O)[C@H](CC2CCCCC2)N(C)C(=O)CN(C)C(=O)CN(C)C1=O` [Compound 166] ([NMeL]I[Sar][Sar][NMeCha][Sar][Phe(3-I)][Phe(4-Me)][NMeAib]L[NMeD]-Piperidide; lactam N-11) is greater than 500 nM; for `CC[C@H](C)[C@@H]1NC(=O)[C@H](CC(C)C)N(C)C(=O)C[C@@H](C)NC(=O)[C@H](C(C)C)N(C)C(=O)C2(CCCC2)NC(=O)[C@@H]2CCCN2C(=O)[C@H](CCc2ccc(C(F)(F)F)c(Cl)c2)NC(=O)CN(C)C(=O)[C@H](Cc2ccccc2C(F)(F)F)N(C)C(=O)CN(C)C(=O)CN(C)C1=O` [Compound 1613] (cyclo([Ac5c][NMeV][d(β3hA)][NMeL]I[Sar][Sar][NMePhe(2-CF3)][Sar][hPhe(3-Cl-4-CF3)]P)) it is greater than 500 nM.
The figure for `CC[C@H](C)[C@@H]1NC(=O)[C@H](CC(C)C)N(C)C(=O)C[C@@H](C(=O)N2CCCCC2)N(C)C(=O)[C@H](C2CCCCC2)N(C)C(=O)C2(CCCC2)NC(=O)[C@@H]2CCCN2C(=O)[C@H](CCc2ccc(C(F)(F)F)c(Cl)c2)NC(=O)CN(C)C(=O)[C@H](COC)N(C)C(=O)CN(C)C(=O)CN(C)C1=O` [Compound 623] ([NMeL]I[Sar][Sar][NMeS](Me)[Sar][hPhe(3-Cl-4-CF3)]P[Ac5c][NMeChg][NMeD]-Piperidide; lactam N-11) is greater than 500 nM.
Turning to `CCO[C@@H]1C[C@H]2C(=O)NC3(CCC3)C(=O)N(C)[C@@H]([C@@H](C)CC)C(=O)N(C)[C@H](C)CC(=O)N(C)[C@@H](CC(C)C)C(=O)N[C@@H]([C@@H](C)CC)C(=O)N(C)[C@@H](C)C(=O)N3CC[C@H]3C(=O)N(CC)[C@@H](Cc3ccc(C)cc3)C(=O)N(C)CC(=O)N[C@@H](CCc3ccc(C(F)(F)F)c(Cl)c3)C(=O)N2C1` [Compound 626] (cyclo([Ac4c][NMeI][NMedβ3hAla][NMeL]I[NMeA][Aze][NEtPhe(4-Me)][Sar][hPhe(3-Cl-4-CF3)][Hyp](Et))), the IC50 is no more than 20 nM.
For `CC[C@H](C)[C@@H]1NC(=O)[C@H](CC(C)C)N(CC)C(=O)C[C@@H](C(=O)N(C)C)N(C)C(=O)[C@H](C2CCCC2)N(C)C(=O)C2(CCCC2)NC(=O)[C@@H]2CCCN2C(=O)[C@H](CCc2ccc(C(F)(F)F)c(Cl)c2)NC(=O)CN(C)C(=O)[C@H](Cc2ccc(C)cc2)N(C)C(=O)[C@@H]2CCN2C(=O)[C@H](C)N(C)C1=O` [Compound 1148] ([NEtLeu]I[NMeA][Aze][NMePhe(4-Me)][Sar][hPhe(3-Cl-4-CF3)]P[Ac5c][NMeGly(cPent)][NMeD]-NMe2; lactam N-11), the IC50 is no more than 20 nM.
